From patent US10653687B2, “Methods and pharmaceutical compostions for treating rhabdomyolysis” (INSERM (INSTITUT NATIONAL DE LA SANTE ET DE LA RECHERCHE …, priority 2015, dated 2020)
Entries after “also recorded” stand apart in the source; their conditions may differ.

Experiments:
myoblasts = assay: Intracellular calcium mobilization in myoblasts (Fluo-4 Assay); type: cell-based, human; conditions: for intracellular calcium on stimulation with the substance: control and patient myoblasts, live imaging; for intracellular calcium mobilization in patient myoblasts stimulated with CpG-A: pre-treatment, concentration not given
Description: Intracellular calcium mobilization was measured in myoblasts using the Fluo-4 Assay from Invitrogen according to the manufacturer's directions and as defined previously. Cells were loaded with 1 μm Fluo-4 for 30 min at 37° C. in 5% CO2/95% O2, as described previously […]. The plates were then transferred to a temperature-controlled stage (Harvard Apparatus, Holliston, Mass., USA) on an Olympus IX-70 inverted microscope. Cultures were visualized using a 40×0.7 numerical aperture fluorite water-immersion objective (TC-SP8 Leica).
To evaluate the link between muscle damage and inflammation, we explored TLR ligand involvement in the control of intracellular Ca2+ dynamics, as its intracellular increase is the hallmark of rhabdomyolysis. The levels of intracellular Ca2+ recorded using live imaging of resting cells were equivalent among control and patient cells. […] This effect observed with patient cells was specific for TLR9 ligands since no response was observed following exposure to LPS or Imiquimod in both patient and control cells. Pre-treatment with 10 μM of chloroquine or ODN-i abolished intracellular calcium mobilization in patient cells in presence of CpG-A completely. […] To obtain additional evidence for the role of inflammation in muscle damage, we measured ATP production in myoblasts following stimulation with CpG-A; we found an impairment of ATP production following stimulation with inflammatory stimuli in patient cells compared to control. To confirm the deleterious effect of TLR9 ligands in patient myoblasts, we incubated myoblasts with increasing doses of CpG-A and measured cellular mortality at different time point as accessed by the viability assay. Myoblasts from patients were exclusively sensitive to TLR9 ligands.

TLR9 = target: T1, TLR9 (Homo sapiens, UniProt Q9NR96); assay: IL-6 secretion of myoblasts stimulated with CpG-A (TLR9 ligand) after pre-treatment with TLR9 antagonists; type: cell-based; conditions: myoblasts pre-treated with the substance, then stimulated with CpG-A
T1 construct: endogenous in cells; host or cells: primary human CD56+ myoblasts from muscle biopsies
T1 sequence (Q9NR96 26-1032): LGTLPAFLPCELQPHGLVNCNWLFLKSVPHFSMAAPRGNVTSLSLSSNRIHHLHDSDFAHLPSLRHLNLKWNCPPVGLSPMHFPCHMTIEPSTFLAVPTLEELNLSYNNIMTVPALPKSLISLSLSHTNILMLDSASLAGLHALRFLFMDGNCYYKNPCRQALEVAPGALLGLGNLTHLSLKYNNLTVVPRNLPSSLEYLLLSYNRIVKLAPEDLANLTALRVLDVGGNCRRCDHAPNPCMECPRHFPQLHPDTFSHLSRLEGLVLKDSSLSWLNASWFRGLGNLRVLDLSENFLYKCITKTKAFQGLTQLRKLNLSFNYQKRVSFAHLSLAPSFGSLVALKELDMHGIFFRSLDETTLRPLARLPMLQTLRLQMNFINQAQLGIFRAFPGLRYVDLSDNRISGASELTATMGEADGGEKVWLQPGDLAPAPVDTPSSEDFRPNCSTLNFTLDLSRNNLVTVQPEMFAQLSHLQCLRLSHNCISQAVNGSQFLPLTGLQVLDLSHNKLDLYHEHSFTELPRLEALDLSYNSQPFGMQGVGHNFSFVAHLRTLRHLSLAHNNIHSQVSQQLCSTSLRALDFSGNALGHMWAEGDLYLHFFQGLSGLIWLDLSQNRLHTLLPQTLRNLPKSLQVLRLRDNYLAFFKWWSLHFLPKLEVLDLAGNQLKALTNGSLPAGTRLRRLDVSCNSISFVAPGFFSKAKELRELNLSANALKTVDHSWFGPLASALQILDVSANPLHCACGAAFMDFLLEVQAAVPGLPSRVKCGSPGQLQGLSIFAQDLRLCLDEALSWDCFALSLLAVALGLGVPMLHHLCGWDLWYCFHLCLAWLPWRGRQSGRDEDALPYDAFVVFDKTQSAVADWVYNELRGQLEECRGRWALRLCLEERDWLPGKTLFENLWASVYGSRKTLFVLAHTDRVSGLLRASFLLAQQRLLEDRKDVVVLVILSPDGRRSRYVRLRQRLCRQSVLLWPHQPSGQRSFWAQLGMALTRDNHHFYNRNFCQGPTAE
Description: Human primary myoblasts were isolated and grown as described. CD56+ myoblasts were isolated by flow cytometry cell sorting using an anti CD56-APC conjugated antibody (e. Biosciences) and routinely maintained in F10 medium supplemented with 20% Fetal Bovine Serum (FBS).
After 12 hours of TLR stimulation of DC at 37° C. in humidified air containing 5% CO2, the concentrations of human IL-8, IL-6, tumor necrosis factor (TNF)-α, IL-1β, IL-10, IL-4, Monocyte Chemoattractant Protein-1 (MCP-1), RANTES (Regulated on Activation, Normal T cell Expressed and Secreted), and Macrophage Inflammatory Protein (MIP)-1-α and β in the culture supernatants were measured with a human cytokine Cytometric Bead Assay (CBA) kit (BD Biosciences, San Jose, Calif.) in accordance with the manufacturer's instructions. In brief, 50 μL of supernatant was mixed with 50 μL of mixed capture beads, and a standard curve was generated. After 3 hours of incubation at room temperature, the samples were washed and suspended in Phosphate-Buffered Saline (PBS) and then analyzed by flow cytometry (ARIA II; BD Biosciences) with CBA Analysis Software (FCAP Array version 3.0; Soft Flow, St Louis Park, Minn.). The results are expressed in picograms per milliliter. […]

[1] = Treatment of lipin-1 patients with hydroxychloroquine: muscle pain and serum cytokines; type: in vivo, human; conditions: two patients, 6 mg/Kg/day, at three months of treatment
Description: Two patients were treated with hydroxychloroquine (Plaquenil®, 6 mg/Kg/day).

| Compound | intracellular calcium on stimulation with the substance (myoblasts) | intracellular calcium mobilization in patient myoblasts stimulated with CpG-A (myoblasts) | secretion of IL-6 after stimulation by CpG-A (TLR9) | other results |
| --- | --- | --- | --- | --- |
| CC(C)Cn1cnc2c(N)nc3ccccc3c21 [Imiquimod, imiquimod] | no response | – | – | – |
| CCN(CC)CCCC(C)Nc1ccnc2cc(Cl)ccc12 (stereo not shown) [chloroquine] | – | abolish | attenuate or abolish; also recorded: abolish | intracellular calcium mobilization in presence of CpG-A (myoblasts; patient cells (myoblasts), pre-treatment with 10 μM): abolished |
| O=C1CN(/N=C/c2ccc(-c3ccc([N+](=O)[O-])cc3)o2)C(O)=N1 [dantrium] | – | – | – | elevation of intracellular calcium (myoblasts; patient myoblasts, chelation of intracellular calcium): inhibited |
| CCN(CCO)CCCC(C)Nc1ccnc2cc(Cl)ccc12 (stereo not shown) [hydroxychloroquine] | – | – | – | muscle pain [1]: decrease; pro-inflammatory cytokines (IL-8, RANTES, MCP-1) in sera [1]: dramatic decrease |
| C[C@H](CCC(=O)O)C[C@H](C)C[C@H](C)C(=O)/C=C(\O)[C@H](C)C[C@H](C)C/C=C/[C@@H](C)[C@@H](O)[C@@H](C)[C@@H](O)C[C@@H]1CC[C@@](C)([C@H]2CC[C@@](C)([C@@H](C)O)O2)O1 [ionomycin] | induced a rapid calcium flux | – | – | – |
| COc1cc(NC(C)CCCN)c2ncccc2c1 (stereo not shown) [primaquine] | – | abolish | attenuate or abolish; also recorded: abolish | – |
